{
  "source": "ChEMBL document CHEMBL1201862",
  "about": "“PubChem BioAssay data set” (2004)",
  "key": {"[1]": {"biological_target": "Beta-adrenergic receptor kinase 1 (Homo sapiens, UniProt P25098)", "sequence (P25098 whole entry)": "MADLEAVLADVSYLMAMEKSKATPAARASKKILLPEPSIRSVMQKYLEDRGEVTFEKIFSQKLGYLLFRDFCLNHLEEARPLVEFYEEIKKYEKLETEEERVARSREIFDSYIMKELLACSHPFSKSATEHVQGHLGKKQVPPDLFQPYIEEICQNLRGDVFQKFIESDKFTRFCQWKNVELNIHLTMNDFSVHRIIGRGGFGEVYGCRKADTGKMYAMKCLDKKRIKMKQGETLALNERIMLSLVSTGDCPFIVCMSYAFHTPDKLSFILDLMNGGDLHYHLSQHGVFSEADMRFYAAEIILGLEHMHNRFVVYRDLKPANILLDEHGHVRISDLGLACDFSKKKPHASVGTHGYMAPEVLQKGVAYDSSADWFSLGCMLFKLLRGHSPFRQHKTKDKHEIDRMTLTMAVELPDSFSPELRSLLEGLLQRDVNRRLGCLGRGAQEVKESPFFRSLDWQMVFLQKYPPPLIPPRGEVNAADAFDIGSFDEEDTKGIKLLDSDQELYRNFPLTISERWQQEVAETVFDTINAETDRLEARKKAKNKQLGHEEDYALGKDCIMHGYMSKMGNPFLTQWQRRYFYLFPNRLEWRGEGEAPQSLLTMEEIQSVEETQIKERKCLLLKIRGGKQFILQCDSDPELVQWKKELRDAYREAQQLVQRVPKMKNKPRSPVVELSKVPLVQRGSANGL", "test": "blockers of aptamer binding to GRK2 – biochemical, flow cytometry beads, FAM-aptamer, powder set 1, dose response (AID 588720)"}, "[2]": {"biological_target": "T1, Carboxy-terminal domain RNA polymerase II polypeptide A small phosphatase 1 (Homo sapiens, UniProt Q9GZU7)", "T1 sequence (Q9GZU7 whole entry)": "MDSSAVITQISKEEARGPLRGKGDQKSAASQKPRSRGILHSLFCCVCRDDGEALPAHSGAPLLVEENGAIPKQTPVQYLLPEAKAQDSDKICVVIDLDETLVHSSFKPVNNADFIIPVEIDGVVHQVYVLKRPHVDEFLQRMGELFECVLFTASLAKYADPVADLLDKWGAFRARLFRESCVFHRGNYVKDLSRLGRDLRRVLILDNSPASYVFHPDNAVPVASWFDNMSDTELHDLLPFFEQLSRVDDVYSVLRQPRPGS", "test": "CTDSP1 inhibitors, concentration-response, biochemical, absorbance readout, ultra-high-throughput screen actives (AID 540297)", "type": "functional"}, "HEK293 [3]": {"test_system": "HEK293", "test": "inhibition of NOD1-driven NF-kB reporter – cell-based, luminescence, uHTS, primary screen (AID 1578)", "type": "functional", "conditions": "Homo sapiens"}, "BJ [4]": {"test_system": "BJ", "test": "BJ-TERT fibroblast viability loss – cell-based, RAS-independent, luminescence, dose response (AID 1933)", "type": "functional", "conditions": "Homo sapiens"}, "HEK293 [5]": {"test_system": "HEK293", "test": "cells", "type": "functional, cell-based", "conditions": "Homo sapiens"}, "BJ [6]": {"test_system": "BJ", "test": "cells", "type": "functional, cell-based", "conditions": "Homo sapiens"}, "HEK293 [7]": {"test_system": "HEK293", "test": "cells", "type": "functional, cell-based", "conditions": "Homo sapiens", "remark": "listed apart in the source"}, "[8]": {"biological_target": "Nucleotide-binding oligomerization domain-containing protein 2 (Homo sapiens, UniProt Q9HC29)", "sequence (Q9HC29 whole entry, the tested form may be a part)": "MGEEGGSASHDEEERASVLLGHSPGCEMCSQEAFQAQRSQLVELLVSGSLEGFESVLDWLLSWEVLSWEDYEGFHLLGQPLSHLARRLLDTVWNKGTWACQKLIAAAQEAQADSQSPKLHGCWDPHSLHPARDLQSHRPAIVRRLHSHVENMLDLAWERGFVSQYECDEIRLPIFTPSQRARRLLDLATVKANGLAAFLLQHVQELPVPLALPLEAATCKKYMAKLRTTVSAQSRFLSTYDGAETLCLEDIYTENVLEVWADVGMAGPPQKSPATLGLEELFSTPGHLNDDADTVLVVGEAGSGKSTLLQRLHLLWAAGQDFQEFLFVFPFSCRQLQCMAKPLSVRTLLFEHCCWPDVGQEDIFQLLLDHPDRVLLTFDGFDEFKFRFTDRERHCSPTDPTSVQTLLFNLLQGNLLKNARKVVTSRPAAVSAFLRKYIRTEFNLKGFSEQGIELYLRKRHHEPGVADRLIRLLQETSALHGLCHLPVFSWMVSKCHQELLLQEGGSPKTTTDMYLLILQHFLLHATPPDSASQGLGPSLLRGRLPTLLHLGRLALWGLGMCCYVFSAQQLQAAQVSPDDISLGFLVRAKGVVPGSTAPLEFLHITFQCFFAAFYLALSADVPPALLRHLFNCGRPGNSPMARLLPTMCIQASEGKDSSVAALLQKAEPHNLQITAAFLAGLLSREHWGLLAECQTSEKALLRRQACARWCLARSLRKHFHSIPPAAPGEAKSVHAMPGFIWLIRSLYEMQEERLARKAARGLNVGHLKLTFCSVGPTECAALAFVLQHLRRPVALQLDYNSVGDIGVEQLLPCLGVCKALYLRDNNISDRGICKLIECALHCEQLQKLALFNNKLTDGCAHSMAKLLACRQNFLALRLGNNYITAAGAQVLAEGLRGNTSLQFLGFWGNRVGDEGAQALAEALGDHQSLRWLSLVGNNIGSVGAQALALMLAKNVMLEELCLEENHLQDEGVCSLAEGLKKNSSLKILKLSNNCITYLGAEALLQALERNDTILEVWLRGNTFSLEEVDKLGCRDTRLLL", "test": "inhibition of NOD2-driven NF-kB reporter – cell-based, luminescence, uHTS, HEK293 (AID 1566)", "type": "functional"}, "HEK293 [9]": {"test_system": "HEK293", "test": "NOD2 signaling inhibitors in MDP-stimulated cells, cell-based, uHTS, luminescence (AID 2001)", "type": "functional", "conditions": "Homo sapiens"}, "HEK293 [10]": {"test_system": "HEK293", "test": "cells", "type": "functional, cell-based", "conditions": "Homo sapiens", "remark": "listed apart in the source"}, "[11]": {"biological_target": "Sphingosine 1-phosphate receptor 4 (Homo sapiens, UniProt O95977)", "sequence (O95977 whole entry)": "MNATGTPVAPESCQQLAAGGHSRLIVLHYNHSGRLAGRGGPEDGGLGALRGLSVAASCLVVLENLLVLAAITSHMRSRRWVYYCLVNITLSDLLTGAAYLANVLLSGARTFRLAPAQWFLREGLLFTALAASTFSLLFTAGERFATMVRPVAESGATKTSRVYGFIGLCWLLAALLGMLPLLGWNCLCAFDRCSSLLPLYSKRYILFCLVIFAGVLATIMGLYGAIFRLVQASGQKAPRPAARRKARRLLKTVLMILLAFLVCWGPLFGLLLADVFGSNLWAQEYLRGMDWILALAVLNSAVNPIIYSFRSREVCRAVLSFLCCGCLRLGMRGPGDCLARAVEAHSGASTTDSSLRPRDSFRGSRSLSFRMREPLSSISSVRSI", "test": "Fluorescence dose response cell-based high throughput screening assay for antagonists of the Sphingosine 1-Phosphate Receptor 4 (S1P4). [Related pubchem assays: 1524 (Confirmation in triplicates.), 1510 (Primary screen.)]", "type": "functional"}, "BJ [12]": {"test_system": "BJ", "test": "BJ-TERT-LT-ST fibroblast viability loss – cell-based, RAS-independent, luminescence, dose response (AID 1935);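 also: BJ fibroblasts immortalized with TERT plus LT and ST oncogenes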", "type": "functional", "conditions": "Homo sapiens"}, "[13]": {"test": "DRD fibroblast viability loss – cell-based, non-viral oncogenic, luminescence, dose response (AID 1934)", "type": "functional", "conditions": "Homo sapiens"}, "[14]": {"biological_target": "Sphingosine 1-phosphate receptor 1 (Homo sapiens, UniProt P21453)", "sequence (P21453 whole entry)": "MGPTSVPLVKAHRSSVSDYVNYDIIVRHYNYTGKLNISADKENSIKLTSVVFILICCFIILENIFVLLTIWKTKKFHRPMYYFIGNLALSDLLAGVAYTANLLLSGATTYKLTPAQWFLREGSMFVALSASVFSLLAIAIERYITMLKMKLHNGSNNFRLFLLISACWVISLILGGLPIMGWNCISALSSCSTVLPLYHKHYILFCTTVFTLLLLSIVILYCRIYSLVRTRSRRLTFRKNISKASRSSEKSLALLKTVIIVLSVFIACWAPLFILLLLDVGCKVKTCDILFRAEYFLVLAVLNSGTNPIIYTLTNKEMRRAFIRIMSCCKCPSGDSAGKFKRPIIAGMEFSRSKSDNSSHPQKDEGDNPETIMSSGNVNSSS", "type": "functional"}, "[15]": {"test": "Intein inhibitors as potential Tuberculosis drugs, a cytotoxicity screen. [Related pubchem assays (depositor defined):AID2221, AID2223, AID434968, AID435010, AID449749, AID449750, AID489010]", "type": "functional"}, "[16]": {"biological_target": "T2, Replicative DNA helicase DnaB (Mycobacterium tuberculosis, UniProt P9WMR3)", "T2 sequence (P9WMR3 whole entry)": "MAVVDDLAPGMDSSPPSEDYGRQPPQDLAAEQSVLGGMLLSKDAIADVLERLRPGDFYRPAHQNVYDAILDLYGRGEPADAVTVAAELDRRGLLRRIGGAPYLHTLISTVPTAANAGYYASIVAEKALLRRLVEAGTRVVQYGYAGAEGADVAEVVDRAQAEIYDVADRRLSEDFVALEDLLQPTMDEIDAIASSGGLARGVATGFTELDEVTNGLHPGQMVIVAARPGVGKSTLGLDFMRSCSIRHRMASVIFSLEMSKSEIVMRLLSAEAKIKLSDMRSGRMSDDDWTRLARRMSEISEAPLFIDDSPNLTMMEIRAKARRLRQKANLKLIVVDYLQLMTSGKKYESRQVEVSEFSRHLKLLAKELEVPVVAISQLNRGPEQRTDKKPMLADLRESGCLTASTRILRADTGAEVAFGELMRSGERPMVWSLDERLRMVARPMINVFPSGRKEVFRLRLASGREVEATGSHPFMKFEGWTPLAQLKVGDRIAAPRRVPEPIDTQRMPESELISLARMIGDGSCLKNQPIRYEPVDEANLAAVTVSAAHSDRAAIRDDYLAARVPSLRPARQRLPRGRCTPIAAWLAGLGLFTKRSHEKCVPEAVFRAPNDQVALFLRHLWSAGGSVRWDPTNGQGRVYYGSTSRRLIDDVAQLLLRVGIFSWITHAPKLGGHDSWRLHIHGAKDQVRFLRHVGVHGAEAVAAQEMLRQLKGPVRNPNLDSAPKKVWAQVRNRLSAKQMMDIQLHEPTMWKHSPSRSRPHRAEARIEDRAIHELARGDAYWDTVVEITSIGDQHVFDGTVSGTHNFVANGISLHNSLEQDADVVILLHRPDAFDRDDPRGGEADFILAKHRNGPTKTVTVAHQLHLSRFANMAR", "test": "DnaB intein splicing inhibitors, dose response, biochemical, cell-free fluorescence (AID 449749)", "type": "functional"}, "Protein RecA": {"biological_target": "T3, Protein RecA (Mycobacterium tuberculosis, UniProt P9WHJ3)", "T3 sequence (P9WHJ3 whole entry)": "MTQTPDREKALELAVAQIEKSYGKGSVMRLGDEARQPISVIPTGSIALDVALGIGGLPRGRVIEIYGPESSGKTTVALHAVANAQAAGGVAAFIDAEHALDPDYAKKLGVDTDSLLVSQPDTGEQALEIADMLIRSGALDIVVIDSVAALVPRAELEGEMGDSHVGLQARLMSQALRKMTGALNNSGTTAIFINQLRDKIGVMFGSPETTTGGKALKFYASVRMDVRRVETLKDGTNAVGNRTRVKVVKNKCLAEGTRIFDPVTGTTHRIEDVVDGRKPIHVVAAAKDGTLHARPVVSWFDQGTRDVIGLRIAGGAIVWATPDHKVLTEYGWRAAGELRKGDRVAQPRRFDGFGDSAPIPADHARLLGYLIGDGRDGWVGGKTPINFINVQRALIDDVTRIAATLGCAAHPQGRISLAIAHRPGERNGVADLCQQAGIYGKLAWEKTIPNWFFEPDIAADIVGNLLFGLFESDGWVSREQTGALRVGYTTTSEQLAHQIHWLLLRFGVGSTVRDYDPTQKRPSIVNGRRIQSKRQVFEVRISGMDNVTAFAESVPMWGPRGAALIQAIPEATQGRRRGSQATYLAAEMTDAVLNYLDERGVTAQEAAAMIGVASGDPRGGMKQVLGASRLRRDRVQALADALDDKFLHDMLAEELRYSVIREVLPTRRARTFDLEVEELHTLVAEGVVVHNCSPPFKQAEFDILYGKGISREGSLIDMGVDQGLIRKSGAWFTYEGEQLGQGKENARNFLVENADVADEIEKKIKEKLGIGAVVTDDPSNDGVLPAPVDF", "test": "Fluorescence Cell-Free Homogeneous Dose Retest to Identify Inhibitors of RecA-Intein Splicing Activity. [Related pubchem assays (depositor defined):AID2097, AID2223, AID489010, AID492950]", "type": "functional"}, "Melanocortin receptor 4": {"biological_target": "Melanocortin receptor 4 (Homo sapiens, UniProt P32245)", "sequence (P32245 whole entry)": "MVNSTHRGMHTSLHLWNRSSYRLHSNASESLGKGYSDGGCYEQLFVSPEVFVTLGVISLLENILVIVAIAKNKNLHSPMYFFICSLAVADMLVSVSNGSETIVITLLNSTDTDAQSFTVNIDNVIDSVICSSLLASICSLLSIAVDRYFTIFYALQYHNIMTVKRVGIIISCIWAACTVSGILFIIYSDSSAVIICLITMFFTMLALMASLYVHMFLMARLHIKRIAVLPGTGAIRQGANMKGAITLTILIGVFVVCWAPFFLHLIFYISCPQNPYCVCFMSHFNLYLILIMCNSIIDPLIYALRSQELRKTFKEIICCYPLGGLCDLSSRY", "test": "inhibitors of MC4R cAMP signaling – cell-based, TR-FRET, biased antagonists, dose response (AID 602298);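 also: antagonist potency against agonist-stimulated cAMP production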", "type": "functional"}, "[17]": {"test": "cAMP pathway inhibition in counterscreen cell line – TR-FRET cAMP detection, counter-screen for MC4R biased antagonist project, dose response (AID 602305);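 also: U2OS cells stimulated with forskolin near its EC80 as the cAMP inducer; potency is for inhibition of forskolin-stimulated cAMP signaling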", "type": "functional, cell-based"}, "[18]": {"test": "Luminescence Cell-Based Dose Confirmation HTS to Identify Activators of 5'UTR Stem-Loop Driven Alpha-Synuclein mRNA Translation in H4 Neuroglioblastoma Cells. [Related pubchem assays: 1829 (Project Summary), 1814 (Primary HTS)]", "type": "functional"}, "[19]": {"test": "Luminescence Cell-Based Dose Response HTS to Identify Activators of Luciferase Translation or Activity in H4 […] Cells. [Related pubchem assays: 1829 (Project Summary), 1814 (Primary HTS)]", "type": "functional"}, "H4": {"test_system": "H4", "test": "Luminescence Cell-Based Dose Response HTS to Identify Activators of 5'UTR Stem-Loop Driven Prion Protein mRNA Translation in H4 Neuroglioblastoma Cells. [Related pubchem assays: 1829 (Project Summary), 1814 (Primary HTS)]", "type": "functional", "conditions": "Homo sapiens"}, "HEK293 [20]": {"test_system": "HEK293", "test": "cells", "type": "functional, cell-based", "conditions": "Homo sapiens", "remark": "listed apart in the source"}, "[21]": {"biological_target": "Nuclear receptor subfamily 0 group B member 1 (Homo sapiens, UniProt P51843)", "sequence (P51843 whole entry)": "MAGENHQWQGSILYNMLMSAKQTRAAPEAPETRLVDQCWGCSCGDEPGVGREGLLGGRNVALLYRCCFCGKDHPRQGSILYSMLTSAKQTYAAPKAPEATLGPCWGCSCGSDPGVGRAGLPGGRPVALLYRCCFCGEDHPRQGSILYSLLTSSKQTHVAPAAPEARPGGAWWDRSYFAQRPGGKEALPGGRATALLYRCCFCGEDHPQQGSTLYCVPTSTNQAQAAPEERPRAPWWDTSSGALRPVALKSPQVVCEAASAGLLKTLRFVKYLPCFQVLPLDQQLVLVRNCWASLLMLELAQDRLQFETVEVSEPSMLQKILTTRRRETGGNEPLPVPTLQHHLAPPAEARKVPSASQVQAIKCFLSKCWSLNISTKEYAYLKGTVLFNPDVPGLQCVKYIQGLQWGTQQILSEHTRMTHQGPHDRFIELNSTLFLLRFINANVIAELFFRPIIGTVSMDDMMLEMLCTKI", "test": "Luminescence-based cell-based high throughput dose response assay for inhibitors of the orphan nuclear receptor subfamily 0, group B, member 1 (DAX1; NR0B1). [Related pubchem assays (depositor defined):AID504766, AID504790]", "type": "functional"}},
  "note": "The source made the active and inactive calls.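 For CC50 in this document: cells exposed to compound for 72 hours before luminescence readout.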",
  "data": [
    {"smiles": "C#CCSc1nc2sc3c(c2c(=O)n1C)CCC3", "values": [
      {"measurement": "EC50", "setting": "[1]", "value": "2.72 µM (active)"},
      {"measurement": "IC50", "setting": "[2]", "value": "6.45 µM (active)"}
    ]},
    {"smiles": "CC(=O)n1cc(N(C(=O)CCl)c2ccc(C)cc2)c2ccccc21", "values": [
      {"measurement": "EC50", "setting": "HEK293 [3]", "value": "16.2 µM (active)"},
      {"measurement": "EC50", "setting": "BJ [4]", "value": "0.812 µM (inconclusive)"},
      {"measurement": "IC50", "setting": "HEK293 [5]", "value": "3.22 µM (active)"},
      {"measurement": "EC50", "setting": "BJ [6]", "value": "2.65 µM (inconclusive)"},
      {"measurement": "IC50", "setting": "HEK293 [7]", "value": "11.5 µM (active)"},
      {"measurement": "EC50", "setting": "[8]", "value": "> 20 µM (inactive)"},
      {"measurement": "IC50", "setting": "HEK293 [9]", "value": "5.38 µM (active)"},
      {"measurement": "IC50", "setting": "HEK293 [10]", "value": "> 20 µM (inactive)"},
      {"measurement": "IC50", "setting": "[11]", "value": "1.3 µM (active)"},
      {"measurement": "EC50", "setting": "BJ [12]", "value": "5.27 µM (inconclusive)"},
      {"measurement": "EC50", "setting": "[13]", "value": "1.2 µM (active)"},
      {"measurement": "IC50", "setting": "[14]", "value": "14.5 µM (not active)"},
      {"measurement": "CC50", "setting": "[15]", "value": "0.83 µM (active)"},
      {"measurement": "AC50", "setting": "[16]", "value": "2.53 µM (active)"},
      {"measurement": "EC50", "setting": "Protein RecA", "value": "0.248 µM (active)"},
      {"measurement": "IC50", "setting": "Melanocortin receptor 4", "value": "> 64.6 µM (inactive)"},
      {"measurement": "IC50", "setting": "[17]", "value": "> 64.6 µM (inactive)"}
    ]},
    {"smiles": "COC(=O)c1cc2c(s1)-c1ccc(OC)cc1CC2", "values": [
      {"measurement": "EC50", "setting": "[18]", "value": "9.47 µM (active)"},
      {"measurement": "EC50", "setting": "[19]", "value": "18.7 µM (active)"},
      {"measurement": "EC50", "setting": "H4", "value": "46.2 µM (active)"},
      {"measurement": "IC50", "setting": "HEK293 [20]", "value": "> 22.5 µM (inactive)"},
      {"measurement": "IC50", "setting": "[21]", "value": "> 67.5 µM (inactive)"}
    ]}
  ]
}
